Like-named read-outs stand apart in the source and are kept apart here.
Key:
[1] = target: T1, pregnane X receptor (PXR) (Homo sapiens, UniProt O75469); type: cell-based; conditions: for Fold induction in PXR activity: HepG2, 24 h, mean ± SD, NA = No activation
T1 sequence (O75469 1-434): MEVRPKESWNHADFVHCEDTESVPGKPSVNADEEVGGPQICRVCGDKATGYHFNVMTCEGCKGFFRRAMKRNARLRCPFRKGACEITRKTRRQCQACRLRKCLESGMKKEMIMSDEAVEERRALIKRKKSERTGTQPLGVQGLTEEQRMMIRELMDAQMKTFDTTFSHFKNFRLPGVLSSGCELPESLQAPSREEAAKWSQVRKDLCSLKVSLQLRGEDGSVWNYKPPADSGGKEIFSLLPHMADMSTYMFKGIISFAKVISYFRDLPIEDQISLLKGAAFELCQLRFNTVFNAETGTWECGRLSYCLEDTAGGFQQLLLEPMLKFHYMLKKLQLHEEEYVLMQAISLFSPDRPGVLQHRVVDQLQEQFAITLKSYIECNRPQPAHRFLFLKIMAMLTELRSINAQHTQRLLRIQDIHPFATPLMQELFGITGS

CYP3A4 = CYP3A4 (Homo sapiens, UniProt P08684); assay: Cytochrome P450; conditions: for CYP 3A4 Inhibition - IC50: 15 min incubation, 37 °C, mean ± SD of three experiments
Sequence of CYP3A4 (P08684 whole entry): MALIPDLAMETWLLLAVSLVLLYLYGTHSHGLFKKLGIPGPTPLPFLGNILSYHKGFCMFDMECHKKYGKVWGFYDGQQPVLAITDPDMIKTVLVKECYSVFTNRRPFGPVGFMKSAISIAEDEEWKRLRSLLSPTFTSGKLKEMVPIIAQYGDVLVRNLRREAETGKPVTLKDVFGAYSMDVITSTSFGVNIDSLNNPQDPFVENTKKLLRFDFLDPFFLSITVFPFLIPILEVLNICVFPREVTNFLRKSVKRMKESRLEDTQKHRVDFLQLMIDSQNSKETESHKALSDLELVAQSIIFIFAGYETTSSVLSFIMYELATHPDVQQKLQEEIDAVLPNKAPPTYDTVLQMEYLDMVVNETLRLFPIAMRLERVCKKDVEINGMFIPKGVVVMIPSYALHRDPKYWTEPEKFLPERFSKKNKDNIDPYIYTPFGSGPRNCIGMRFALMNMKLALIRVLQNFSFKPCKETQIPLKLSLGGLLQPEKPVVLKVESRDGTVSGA

## COc1cc(/C=C/C(=O)NCCc2ccc(O)cc2)ccc1O [N-trans-feruloyl tyramine]
[1]; human
  fold induction at 24 h, 12.5 μg/mL: 1.59 ± 0.07
  fold induction at 24 h, 25 μg/mL: 2.16 ± 0.27
  fold induction at 24 h, 50 μg/mL: 2.29 ± 0.41
CYP3A4
  IC50: 8.62 µM

## COC(=O)C1=CCC[C@H]2[C@]3(C)C[C@@H](c4ccoc4)OC(=O)[C@@H]3C[C@@H](O[C@@H]3O[C@H](CO)[C@@H](O)[C@H](O)[C@H]3O)[C@@]12C [Borapetoside C, borapetoside C]
CYP3A4
  IC50: 69.9 µM

## C[C@@]12C[C@@H](c3ccoc3)OC(=O)[C@@H]1CC[C@]1(C)[C@H]2[C@@H]2C=C[C@@]1(O)C(=O)O2 [Columbin, columbin]
[1]; compounds at 25 μg/mL
  Fold induction in PXR activity: 2.89 ± 0.62 fold
[1]; compounds at 50 μg/mL
  Fold induction in PXR activity: 3.58 ± 0.61 fold
[1]; concentration not given
  PXR activation (fold): 3 fold

## CC(=O)O[C@@H]1[C@@H]2[C@H](CC[C@@]3(O)C(=O)O[C@H](c4ccoc4)C[C@@]23C)[C@H](O[C@@H]2O[C@H](CO)[C@@H](O)[C@H](O)[C@H]2O)C[C@@H]1O [Tinosineside A, tinosineside A]
[1]; compounds at 12.5 μg/mL
  Fold induction in PXR activity: 1.42 ± 0.06 fold
[1]; compounds at 25 μg/mL
  Fold induction in PXR activity: 1.50 ± 0.00 fold
[1]; compounds at 50 μg/mL
  Fold induction in PXR activity: 1.53 ± 0.11 fold
CYP3A4
  CYP 3A4 Inhibition - IC50: 45.00 ± 5.72 µg/mL

## COC(=O)C1=CCCC2C3(C)CC(c4ccoc4)OC(=O)C3=CC(OC3OC(CO)C(O)C(O)C3O)C12C (stereo not shown) [Borapetoside F, borapetoside F]
CYP3A4
  CYP 3A4 Inhibition - IC50: 13.00 ± 0.82 µg/mL

## baenzigeride A
[1]; compounds at 12.5 μg/mL
  Fold induction in PXR activity: 1.18 ± 0.09 fold
[1]; compounds at 25 μg/mL
  Fold induction in PXR activity: 1.54 ± 0.16 fold
[1]; compounds at 50 μg/mL
  Fold induction in PXR activity: 1.96 ± 0.16 fold

## COc1cc2c(cc1OC)-c1cc3ccc(OC)c(OC)c3c[n+]1CC2 [Palmatine, palmatine]
[1]; compounds at 12.5 μg/mL
  Fold induction in PXR activity: 1.08 ± 0.00 fold
[1]; compounds at 25 μg/mL
  Fold induction in PXR activity: 1.30 ± 0.00 fold
[1]; compounds at 50 μg/mL
  Fold induction in PXR activity: 1.43 ± 0.00 fold
CYP3A4
  CYP 3A4 Inhibition - IC50: 34.00 ± 0.00 µg/mL

## COC(=O)C1=C[C@H](O)C[C@H]2[C@]3(C)C[C@@H](c4ccoc4)OC(=O)[C@H]3C[C@H](O[C@@H]3O[C@H](CO)[C@@H](O)[C@H](O)[C@H]3O)[C@@]12C [Borapetoside B, borapetoside B]
CYP3A4
  IC50: 181 µM

## COc1cc(/C=C/CO)cc(OC)c1O[C@@H]1O[C@H](CO)[C@@H](O)[C@H](O[C@@H]2OC[C@](O)(CO)[C@H]2O)[C@H]1O [Tinosinen, tinosinen]
[1]; compounds at 12.5 μg/mL
  Fold induction in PXR activity: 1.48 ± 0.06 fold
[1]; compounds at 25 μg/mL
  Fold induction in PXR activity: 1.67 ± 0.02 fold
[1]; compounds at 50 μg/mL
  Fold induction in PXR activity: 1.42 ± 0.06 fold
CYP3A4
  CYP 3A4 Inhibition - IC50: >100 µg/mL

## tinosposinoside
[1]; compounds at 12.5 μg/mL
  Fold induction in PXR activity: 1.30 ± 0.08 fold
[1]; compounds at 25 μg/mL
  Fold induction in PXR activity: 1.55 ± 0.08 fold
[1]; compounds at 50 μg/mL
  Fold induction in PXR activity: 1.52 ± 0.15 fold

## C=C(CC[C@@H](C)[C@H]1CC[C@@]2(C)[C@@H]3CC[C@H]4[C@H](C)[C@@H](O)CC[C@@]45C[C@@]35CC[C@]12C)C(C)C [Cycloeucalenol, cycloeucalenol]
[1]; human
  fold induction at 24 h, 12.5 μg/mL: 1.42 ± 0.06
  fold induction at 24 h, 25 μg/mL: 1.91 ± 0.23
  fold induction at 24 h, 50 μg/mL: 2.42 ± 0.3

## COC(=O)C1=C[C@H](O)C[C@H]2[C@]3(C)C[C@@H](c4ccoc4)OC(=O)[C@@H]3C[C@@H](O[C@@H]3O[C@H](CO)[C@@H](O)[C@H](O)[C@H]3O)[C@@]12C [(2R,5R,6R,8R,9S, 10S,12S)-15,16-epoxy-2-hydroxy-6-O-(β-D-glucopyranosyl)-cleroda-3, 13(16),14-trien-17,12-olid-18-oicacidmethyl ester]
[1]; compounds at 12.5 μg/mL
  Fold induction in PXR activity: 0.93 ± 0.04 fold
[1]; compounds at 25 μg/mL
  Fold induction in PXR activity: 1.01 ± 0.13 fold
[1]; compounds at 50 μg/mL
  Fold induction in PXR activity: 1.39 ± 0.11 fold
CYP3A4
  CYP 3A4 Inhibition - IC50: 29.00 ± 0.82 µg/mL

## CO[C@H]1/C=C/O[C@@]2(C)Oc3c(C)c(O)c4c(O)c(c(/C=N/N5CCN(C)CC5)c(O)c4c3C2=O)NC(=O)/C(C)=C\C=C\[C@H](C)[C@H](O)[C@@H](C)[C@@H](O)[C@@H](C)[C@H](OC(C)=O)[C@@H]1C [Rifampicin, reference compound]
[1]; human
  fold induction at 24 h, 5 µM: 3.24 ± 0.15
  fold induction at 24 h, 10 µM: 3.25 ± 0.08

## cordifoliside C
[1]; compounds at 12.5 μg/mL
  Fold induction in PXR activity: 1.22 ± 0.06 fold
[1]; compounds at 25 μg/mL
  Fold induction in PXR activity: 1.47 ± 0.03 fold
[1]; compounds at 50 μg/mL
  Fold induction in PXR activity: 1.95 ± 0.04 fold

— paper PMC11094663 (Journal of ethnopharmacology, 2022)
